According to patent publication US10577363B2, “Substituted piperidine compounds” (EPIZYME, INC., priority 2014, dated 2020):
Where a name gives a salt, the structure may show the parent alone. One block for each compound: values may come before it.

Tests used:
[1] = molecular target: T1, SMYD3 (Homo sapiens (Human), UniProt Q9H7B4); assay: SMYD3 biochemical assay (SPA, 3H-SAM methylation of MEKK2 protein substrate)
Outline: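 Tritium incorporation into GST-MEKK2 is counted by scintillation proximity after citric acid bead capture. Native human SMYD3 is preincubated with test compound for 30 min at room temperature at pH 8.0 (Tris-Cl, TCEP, BSG, Tween 20) before 3H-SAM and substrate are added; cold SAM at 100 uM final stops turnover.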

[2] = molecular target: T1, SMYD3; assay: SMYD3 cell assay (Trimethyl-MEKK2 In-Cell Western in 293T/17 cells); type: cell-based
Outline: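 In-Cell Western ratio of trimethyl-Lys260 MEKK2 to anti-flag signal; percent inhibition from DMSO and maximum-inhibition controls, IC50 by non-linear regression, triplicates.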

[3] = average of n = 1 to n = 50, read-out: SMYD3 Biochem IC50
[4] = average of n = 1 to n = 50, read-out: SMYD3 Cell IC50
[5] = read-out: SMYD3 Biochem IC50 (μM)*
[6] = 293T/17 cells, read-out: SMYD3 Cell IC50 (μM)*
[7] = IC50 values are an average of n = 1 to n = 50, read-out: SMYD3 Biochem IC50*
[8] = IC50 values are an average of n = 1 to n = 50, read-out: SMYD3 Cell IC50*
[9] = read-out: SMYD3 Cell IC50 (μM)*

T1 sequence (Q9H7B4 whole entry): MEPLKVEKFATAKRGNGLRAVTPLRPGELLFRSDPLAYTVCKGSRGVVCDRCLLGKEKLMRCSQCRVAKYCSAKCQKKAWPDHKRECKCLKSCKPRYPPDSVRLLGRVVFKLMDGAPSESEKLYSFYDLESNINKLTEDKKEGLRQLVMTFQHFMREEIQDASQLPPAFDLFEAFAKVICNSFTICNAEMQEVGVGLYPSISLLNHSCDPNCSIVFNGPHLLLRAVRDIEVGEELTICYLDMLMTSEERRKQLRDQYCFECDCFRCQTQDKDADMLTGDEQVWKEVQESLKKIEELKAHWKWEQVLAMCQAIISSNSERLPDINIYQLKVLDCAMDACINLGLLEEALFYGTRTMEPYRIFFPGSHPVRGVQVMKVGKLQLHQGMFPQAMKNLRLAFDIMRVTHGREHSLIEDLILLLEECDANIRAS

SMILES: COCCNCc1ccc(S(=O)(=O)N2[C@@H]3CC[C@H]2C[C@@H](NC(=O)c2cc(C4CC4)on2)C3)cc1 [compound 986, 5-cyclopropyl-N-((1R,3r,5S)-8-((4-(((2-methoxyethyl)amino)methyl)phenyl)sulfonyl)-8-azabicyclo[3.2.1]octan-3-yl)isoxazole-3-carboxamide]
- IC50 [1, 7]: 0.156 µM
- IC50 [2, 8]: 0.807 µM

SMILES: CN[C@H]1CC[C@H](S(=O)(=O)N2[C@@H]3CC[C@H]2C[C@@H](NC(=O)c2cc(C4CC4)on2)C3)CC1 [compound 786, 5-cyclopropyl-N-((1R,3R,5S)-8-(((1r,4R)-4-(methylamino)cyclohexyl)sulfonyl)-8-azabicyclo[3.2.1]octan-3-yl)isoxazole-3-carboxamide]
- IC50 ([1]; read-out: SMYD3 Biochem IC50*): 0.00137 µM
- IC50 ([2]; read-out: SMYD3 Cell IC50*): 0.0358 µM

SMILES: CC(C)C1CN(S(=O)(=O)N2[C@@H]3CC[C@H]2C[C@@H](NC(=O)c2cc(C4CC4)on2)C3)CCN1 (stereo partly drawn) [compound 925, 5-cyclopropyl-N-((1R,3r,5S)-8-((3-isopropylpiperazin-1-yl)sulfonyl)-8-azabicyclo[3.2.1]octan-3-yl)isoxazole-3-carboxamide]
- IC50 ([1]; read-out: SMYD3 Biochem IC50*): 0.0299 µM
- IC50 ([2]; read-out: SMYD3 Cell IC50*): 0.34 µM

SMILES: O=C(N[C@@H]1CCN(S(=O)(=O)CCN2CCCC2)[C@H](Cc2ccccc2)C1)c1cc(C2CC2)on1 [compound 407, N-((2R,4R)-2-benzyl-1-((2-(pyrrolidin-1-yl)ethyl)sulfonyl)piperidin-4-yl)-5-cyclopropylisoxazole-3-carboxamide]
- IC50 [1, 5]: 3.81 µM
- IC50 [2, 6]: > 10 µM

SMILES: O=C(N[C@@H]1C[C@H]2CC[C@@H](C1)N2S(=O)(=O)c1ccccc1)c1cc(C2CC2)on1 [compound 399, 5-cyclopropyl-N-((1R,3s,5S)-8-(phenylsulfonyl)-8-azabicyclo[3.2.1]octan-3-yl)isoxazole-3-carboxamide]
- IC50 [1, 5]: 0.833 µM
- IC50 [2, 6]: 2.87 µM

SMILES: O=C(N[C@H]1C[C@H]2CC[C@@H](C1)N2S(=O)(=O)C[C@H]1CCCNC1)c1cc(C2CC2)on1 [compound 575, 5-cyclopropyl-N-((1R,3S,5S)-8-((((S)-piperidin-3-yl)methyl)sulfonyl)-8-azabicyclo[3.2.1]octan-3-yl)isoxazole-3-carboxamide]
- IC50 ([1]; Table 2A, read-out: SMYD3 Biochem IC50): 0.008 µM
- IC50 ([2]; Table 2A, read-out: SMYD3 Cell IC50): 0.0674 µM

SMILES: O=C(N[C@H]1C[C@H]2CC[C@@H](C1)N2S(=O)(=O)C[C@@H]1CCCN1)c1cc(C2CC2)on1 [compound 930, 5-cyclopropyl-N-((1R,3S,5S)-8-((((S)-pyrrolidin-2-yl)methyl)sulfonyl)-8-azabicyclo[3.2.1]octan-3-yl)isoxazole-3-carboxamide]
- IC50 ([1]; read-out: SMYD3 Biochem IC50*): 0.0371 µM
- IC50 ([2]; read-out: SMYD3 Cell IC50*): 0.351 µM

SMILES: CCc1cc(C(=O)N[C@@H]2CCN(S(=O)(=O)c3ccc(C(C)(C)N)cc3)[C@@H](C)C2)no1 [compound 987, N-((2S,4R)-1-((4-(2-aminopropan-2-yl)phenyl)sulfonyl)-2-methylpiperidin-4-yl)-5-ethylisoxazole-3-carboxamide]
- IC50 [1, 7]: 0.158 µM
- IC50 [2, 8]: 0.776 µM

SMILES: C[C@H]1CN(S(=O)(=O)CC2CCN(Cc3ccccc3)CC2)CC[C@H]1NC(=O)c1cc(C2CC2)on1 [compound 655, N-((3S,4R)-1-(((1-benzylpiperidin-4-yl)methyl)sulfonyl)-3-methylpiperidin-4-yl)-5-cyclopropylisoxazole-3-carboxamide]
- IC50 [1, 3]: 0.0564 µM
- IC50 [2, 4]: 0.497 µM

SMILES: C[C@@H](C1CCNCC1)S(=O)(=O)N1[C@@H]2CC[C@H]1C[C@@H](NC(=O)c1cc(C3CC3)on1)C2 [compound 882, 5-cyclopropyl-N-((1R,3S,5S)-8-(((S)-1-(piperidin-4-yl)ethyl)sulfonyl)-8-azabicyclo[3.2.1]octan-3-yl)isoxazole-3-carboxamide]
- IC50 ([1]; read-out: SMYD3 Biochem IC50*): 0.0112 µM
- IC50 ([2]; read-out: SMYD3 Cell IC50*): 0.0856 µM

SMILES: O=C(N[C@H]1C[C@H]2CC[C@@H](C1)N2S(=O)(=O)CCCN1CCOCC1)c1cc(C2CC2)on1 [compound 496, 5-cyclopropyl-N-((1R,3r,5S)-8-((3-morpholinopropyl)sulfonyl)-8-azabicyclo[3.2.1]octan-3-yl)isoxazole-3-carboxamide]
- IC50 ([1]; Table 1A, IC50 values are an average of n = 1 to n = 50, read-out: SMYD3 Biochem IC50): 0.162 µM
- IC50 ([2]; Table 1A, IC50 values are an average of n = 1 to n = 50, read-out: SMYD3 Cell IC50): 0.854 µM

Further lines, results first:

- IC50 [1, 3]: 0.0801 µM
- IC50 [2, 4]: 1.55 µM
SMILES: O=C(N[C@H]1CCN(S(=O)(=O)CC2CCN(CCO)CC2)[C@@H](Cc2ccccc2)C1)c1cc(C2CC2)on1 [compound 662, N-((2S,4S)-2-benzyl-1-(((1-(2-hydroxyethyl)piperidin-4-yl)methyl)sulfonyl)piperidin-4-yl)-5-cyclopropylisoxazole-3-carboxamide]

- IC50 [1, 5]: 0.132 µM
- IC50 [2, 6]: 0.581 µM
SMILES: C[C@H]1C[C@@H](NC(=O)c2cc(C3CC3)on2)CCN1S(=O)(=O)c1ccc(NCCN2CCOCC2)nc1 [Cpd. No. 458, 5-cyclopropyl-N-((2S,4S)-2-methyl-1-(6-(2-morpholinoethylamino)pyridin-3-ylsulfonyl)piperidin-4-yl)isoxazole-3-carboxamide dihydrochloride]

- IC50 [1, 3]: 0.0282 µM
- IC50 [2, 4]: 0.407 µM
SMILES: C[C@@H]1CN(S(=O)(=O)CC2CCNCC2)[C@H](C)C[C@@H]1NC(=O)c1cc(C2CC2)on1 [compound 629, 5-cyclopropyl-N-((2R,4S,5R)-2,5-dimethyl-1-((piperidin-4-ylmethyl)sulfonyl)piperidin-4-yl)isoxazole-3-carboxamide]

- IC50 [1, 3]: 0.0452 µM
- IC50 [2, 4]: 0.755 µM
SMILES: C[C@H]1CN(S(=O)(=O)NC2CCNCC2)CC[C@H]1NC(=O)c1cc(C2CC2)on1 [compound 646, 5-cyclopropyl-N-((3S,4R)-3-methyl-1-(N-(piperidin-4-yl)sulfamoyl)piperidin-4-yl)isoxazole-3-carboxamide]

- IC50 [1, 5]: 0.156 µM
- IC50 [2, 9]: 2.5 µM
SMILES: N[C@H]1CC[C@H](C(=O)N2CC3CCC2CC3NC(=O)c2cc(C3CC3)on2)CC1 (stereo partly drawn) [compound 88, N-(2-((1r,4r)-4-aminocyclohexane-1-carbonyl)-2-azabicyclo[2.2.2]octan-5-yl)-5-cyclopropylisoxazole-3-carboxamide]

- IC50 ([1]; read-out: SMYD3 Biochem IC50*): 0.00124 µM
- IC50 ([2]; read-out: SMYD3 Cell IC50*): 0.0517 µM
SMILES: C[C@H]1C[C@@H](NC(=O)c2cc(C3CC3)on2)CCN1S(=O)(=O)C1CCC(CN)C1 (stereo partly drawn) [compound 783, N-((2S,4S)-1-((3-(aminomethyl)cyclopentyl)sulfonyl)-2-methylpiperidin-4-yl)-5-cyclopropylisoxazole-3-carboxamide]

- IC50 ([1]; read-out: SMYD3 Biochem IC50*): 0.00107 µM
- IC50 ([2]; read-out: SMYD3 Cell IC50*): 0.0144 µM
SMILES: CC[C@@H]1C[C@H](NC(=O)c2cc(C3CC3)on2)CCN1S(=O)(=O)CC1CCN(C)CC1 [compound 775, 5-cyclopropyl-N-((2R,4R)-2-ethyl-1-(((1-methylpiperidin-4-yl)methyl)sulfonyl)piperidin-4-yl)isoxazole-3-carboxamide]

- IC50 [1, 3]: 0.111 µM
- IC50 [2, 4]: 5.31 µM
SMILES: C[C@H]1C[C@@H](NC(=O)c2cc(C3CC3)on2)CCN1S(=O)(=O)N(C)CCN [compound 677, N-((2S,4S)-1-(N-(2-aminoethyl)-N-methylsulfamoyl)-2-methylpiperidin-4-yl)-5-cyclopropylisoxazole-3-carboxamide]

- IC50 [1, 5]: 0.59 µM
- IC50 [2, 9]: 3.72 µM
SMILES: C[C@H]1CN(S(=O)(=O)CCN)CCC1NC(=O)c1cc(C2CC2)on1 (stereo partly drawn) [compound 66, N-((3S)-1-((2-aminoethyl)sulfonyl)-3-methylpiperidin-4-yl)-5-cyclopropylisoxazole-3-carboxamide]

- IC50 [1, 5]: > 10 µM
- IC50 [2, 6]: > 40 µM
SMILES: C[C@@H]1C[C@@H](NC(=O)c2cc(C3CC3)on2)CCN1S(=O)(=O)c1cn(C)cn1 [compound 283, 5-cyclopropyl-N-((2R,4S)-2-methyl-1-((1-methyl-1H-imidazol-4-yl)sulfonyl)piperidin-4-yl)isoxazole-3-carboxamide]
